Measurements from patent publication US4620871A (priority 1980, dated 1986).
Like-named read-outs stand apart in the source and are kept apart here.

Key:
[1] = system: Soybean; assay: Stimulation of photosynthesis, 14CO2 incorporation, soybean leaf discs (Example 20); conditions: Glycine max, foliar, 2 hours
Procedure: The compositions according to the invention were diluted with distilled water to an active agent content of 200 ppm, and leaf discs of alfalfa, soybean, bean and maize, weighing 200 mg each, were floated on the surfaces of the resulting solutions for 2 hours. Thereafter the treated leaf discs were place into the assimilation chamber of an appropriate measuring apparatus, and a known amount of radioactive carbon dioxide gas (^14 CO2) was introduced into the assimilation chamber from a reservoir by means of a gas feeder for 0.5 hours under carefully controlled illumination conditions. Thereafter the leaf discs were frozen with liquid nitrogen, triturated with 50% by weight perchloric acid in a potter homogenizer, and stock solutions were prepared from the resulting mixtures. The specific radioactivities of the stock solutions were determined by liquid scintillation.
(§1) In the control test untreated leaf discs were exposed to labelled carbon, dioxide, and the amount of carbon dioxide incorporated under such conditions was regarded as standard.

[2] = system: Tobacco callus; assay: Growth of tobacco callus vs kinetin (Example 14); type: cell-based; conditions: 2 ppm active agent
Procedure: An untreated culture medium served as control. Tobacco callus was grown on the treated and untreated culture media (incubation period: 3 weeks), and the daily growth, the increase in cell number and the frequency of mitosis were measured according to the method of Skoog.
The test described in Example 13 was repeated so that a culture medium containing 1 ppm of kinetin was used as control, and the compositions according to the invention were applied in amounts corresponding to 2 ppm of active agent.

[3] = system: Bean; assay: Inhibition of the decomposition of chlorophyll in bean leaf segments; conditions: 4 days dark
Procedure: (§2) The active agent to be tested was dissolved in distilled water to form a 200 ppm solution, and leaf segments of the plants under examination, weighing 200 mg, were floated on the surface of the solution for 4 days in the dark. Thereafter chlorphyll was extracted from the leaf segments with methanol.
(§3) To determine the starting state, chlorophyll was extracted with methanol from untreated leaf segments weighing 200 mg. In the control test the leaf segments, weighing 200 mg, were floated on the surface of distilled water for 4 days in the dark, and then chlorophyll was extracted from the leaf segments with methanol.
(§4) The chlorophyll concentration was determined by measuring the extinction of the extracts at 665 mμ.

[4] = system: Soybean; assay: Inhibition of the decomposition of chlorophyll in soybean leaf segments; conditions: 4 days dark
Procedure: as §2, §3, §4

[5] = system: Soybean; assay: Total and protein nitrogen content of soybean (Example 39); type: in vivo
From the text: The effects of 1,4-dihydroxyphthalazine and salts thereof exerted on the total nitrogen content and protein nitrogen content of soybean were examined as described in Example 27. The plants were sprayed with the compositions according to the invention at the beginning of the flowering of the apical cluster.

[6] = system: Alfalfa; assay: Alfalfa field tests 1979, Boly (Example 26); type: in vivo
From the text: The effects of the compositions according to the invention exerted on the crop yield (green yield), crude protein content, protein nitrogen content and C/N ratio of alfalfa, observed under field conditions in the tests performed in 1979 at the Agricultural Combinate of Boly, Hungary, are listed in Table 17.

[7] = system: Egri leanyka vine variety; assay: Berry yield and sugar content of vine, Egri leanyka (Example 33); type: in vivo; conditions: for Berry yield: 3 x 2 kg/ha, control 151.15; for Sugar content: control 16.7; for Sugar yield: control 18.93
Procedure: (§5) Vine stands were sprayed with the compositions according to the invention to examine their effects exerted on the berry yield and sugar content. The compositions, diluted with water, were sprayed three times onto the plants. The first treatment was performed prior to flowering, the second one three weeks later, and the third one six weeks after the first one. The dose applied was 2 kg/ha in each of the treatments.
(§6) Comparative tests were also performed with commonly used growth regulating compositions, i.e. CCC (chlorocholine chloride), Ethrel (or Etefon; 2-chloroethylphosphonic acid) and Nevirol (N-phenyl-phthalaiminic acid). The results were compared to those observed with the untreated controls.
(§7) Two vine varieties, Pannonia and Egri leanyka, were involved in the tests.

[8] = system: Pannonia vine variety; assay: Berry yield and sugar content of vine, Pannonia (Example 33); type: in vivo; conditions: for Berry yield: 3 x 2 kg/ha, control 216; for Sugar content: control 13.0; for Sugar yield: control 28.08
Procedure: as §5, §6, §7

[9] = system: Maize; assay: Stimulation of photosynthesis, 14CO2 incorporation, maize leaf discs (Example 20); conditions: Zea mays, foliar, 2 hours
Procedure: The specific radioactivities of the stock solutions were determined by liquid scintillation.
as §1

[10] = system: Bean; assay: Stimulation of photosynthesis, 14CO2 incorporation, bean leaf discs (Example 20); conditions: foliar, 2 hours
Procedure: The specific radioactivities of the stock solutions were determined by liquid scintillation. In the control test untreated leaf discs were exposed to labelled carbon, dioxide, and the amount of carbon dioxide incorporated under such conditions was regarded as standard.

[11] = system: Barley; assay: Inhibition of the decomposition of chlorophyll in barley leaf segments; conditions: 4 days dark
Procedure: as §2, §3, §4

[12] = system: maize for silage; assay: Maize for silage field tests 1979, Boly (Example 28); type: in vivo
From the text: The effects of the cytokinin-like regulators on the crop yield, crude protein content and real protein content of maize for silage, observed under field conditions in the tests performed in 1979 at the Agricultural Combinate of Boly, Hungary, are listed in Table 20.

[13] = system: bean leaves; assay: Incorporation of Gly-2-14C in bean leaves (Example 36); conditions: 18 hours
Procedure: (§8) The biological activities of cytokinin-like factors can be well characterized by measuring the intensity of the photosynthetic carbon dioxide fixation and the incorporation of labelled amino acids into the TCA-insoluble protein fraction. The intensity of photosynthetic carbon dioxide fixation was determined on maize leaves, utilizing ^14 CO2, whereas the incorporation of amino acids was examined on bean leaves, utilizing […]-^14 C.

[14] = system: maize leaves; assay: Fixation of 14CO2 in maize leaves (Example 36); conditions: 18 hours
Procedure: as §8

[15] = system: Maize; assay: Inhibition of the decomposition of chlorophyll in maize; conditions: 200 ppm, 100 mg green plant, control 0.65
Procedure: as §3, with “Thereafter chlorphyll was extracted from the leaf segments with methanol. To” for “To”, “methanol. […] For alfalfa and maize the chlorphyll contents of 100 mg of green plant were examined.” for “methanol.”

[16] = system: Alfalfa; assay: Inhibition of the decomposition of chlorophyll in alfalfa; conditions: 200 ppm, 100 mg green plant, control 0.78
Procedure: as §3, with “Thereafter chlorphyll was extracted from the leaf segments with methanol. To” for “To”, “methanol. […] For alfalfa and maize the chlorphyll contents of 100 mg of green plant were examined.” for “methanol.”

N=C(N)N.N=C(N)N.Oc1nnc(O)c2ccccc12 [1,4-dihydroxyphthalazine diguanidine salt]
activation at 200 ppm [1]: 67% | Dry weight of the callus ([2]; kinetin 1 ppm): 170.92 mg | Speed of growth ([2]; kinetin 1 ppm): 98.23 | activity at 2 ppm ([2]; Nicotiana tabacum, 504 h, kinetin 1 ppm = 100, read-out: Speed of growth, Index %): 98.2% | Chlorophyll ([3]; 200 ppm, control 4.2): 6.5 mg | activation at 200 ppm ([3]; foliar, 96 h, read-out: Promotion): 54% | Chlorophyll ([4]; 200 ppm, control 3.5): 5.4 mg | activation at 200 ppm ([4]; Glycine max, foliar, 96 h, read-out: Promotion): 54% | Protein nitrogen content ([5]; control 1.9): 3.9 % of dry substance | Total nitrogen content ([5]; control 2.6): 4.7 % of dry substance | Protein nitrogen content, increase ([5]; in vivo): 105.3% | Total nitrogen content, increase ([5]; in vivo): 81.0% | P2O5 content ([6]; control 8.3): 10.3 % of dry substance | Crude protein content ([6]; control 21.3): 25.4 % of dry substance | Green yield ([6]; control 120): 146 q/ha | Crude protein content, increase ([6]; in vivo): 19.4% | Green yield, increase ([6]; in vivo): 22.3% | P2O5 content, increase ([6]; in vivo): 24.6% | Berry yield [7]: 124.23 q/ha | Sugar content [7]: 16.8% | Sugar yield [7]: 15.65 q/ha | Sugar content, increase [8]: 53.8% | Sugar yield, increase [8]: 62% | Berry yield [8]: 232 q/ha | Sugar content [8]: 20.0% | Sugar yield [8]: 46.40 q/ha | activation at 200 ppm [9]: 12% | activation at 200 ppm [10]: 4% | Chlorophyll ([11]; 200 ppm, control 3.7): 9.7 mg | activation at 200 ppm ([11]; Hordeum vulgare, foliar, 96 h, read-out: Promotion): 162% | P2O5 content ([12]; control 7.5): 9.5 % of dry substance | Crude protein content ([12]; control 13.2): 16.0 % of dry substance | Green weight ([12]; control 310.2): 361.3 q/ha | Crude protein content, increase ([12]; in vivo): 21.3% | Green weight, increase ([12]; in vivo): 15.5% | P2O5 content, increase ([12]; in vivo): 27.2%

CCC[n+]1c[nH]c2ccccc21.[Br-] [N--(n-Propyl)-benzimidazolium bromide, N-(n-propyl)-benzimidazolium bromide]
Incorporation of Gly-2-14C ([13]; fresh weight, control 3.52): 4.96 μCi/g | Incorporation of Gly-2-14C, % ([13]; increase over control): 41% | Berry yield, increase [7]: 17.0% | Sugar yield, increase [7]: 17.0% | influence on sugar content, in words [7]: did not influence the sugar content | Berry yield [7]: 176.92 q/ha | Sugar content [7]: 16.7% | Sugar yield [7]: 22.16 q/ha | Berry yield, increase ([7]; listed as N-(n-propyl)-benzimidazolium bromide): 17% | Sugar content, increase [8]: 21.5% | Sugar yield, increase [8]: 27% | Berry yield [8]: 226 q/ha | Sugar content [8]: 15.8% | Sugar yield [8]: 35.70 q/ha | Fixation of 14CO2 ([14]; fresh weight, control 5.72): 10.52 μCi/g | Fixation of 14CO2, % ([14]; increase over control): 84% | Chlorophyll content [15]: 0.82 mg | Chlorophyll content [16]: 0.96 mg
